We go through 1 molecule from BindingDB's records for patent US20250188095 (Jiangsu Nhwa Pharmaceutical Co., 2025).

The assay addresses T1, Orexin/Hypocretin receptor type 1 (Homo sapiens, UniProt O43613).
T1 sequence (O43613 whole entry): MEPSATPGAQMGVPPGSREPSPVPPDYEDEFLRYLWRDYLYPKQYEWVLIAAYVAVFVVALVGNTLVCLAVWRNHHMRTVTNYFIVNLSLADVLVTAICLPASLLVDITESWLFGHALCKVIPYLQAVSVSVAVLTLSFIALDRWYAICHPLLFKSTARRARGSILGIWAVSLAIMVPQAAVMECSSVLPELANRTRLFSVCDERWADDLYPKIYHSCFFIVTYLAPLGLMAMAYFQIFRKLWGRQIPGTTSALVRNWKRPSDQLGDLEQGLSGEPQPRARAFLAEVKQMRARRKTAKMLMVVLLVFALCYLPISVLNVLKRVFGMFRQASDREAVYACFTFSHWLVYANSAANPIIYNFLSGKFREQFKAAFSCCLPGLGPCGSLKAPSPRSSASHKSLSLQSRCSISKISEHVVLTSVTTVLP
The assay can be described thus: In Vitro Activity Assay. As to the method:
The cells were centrifuged at 1000 rpm for 5 min, and the supernatant was discarded. 3 mL of PBS was added, and the mixture was gently pipetted to be mixed well. The cells were centrifuged again at 1000 rpm for 5 min, and the supernatant was discarded.

Consider `Cc1cc(C)nc(N2C[C@H]3CN(C(=O)c4c(-c5ccsc5)cn5ccccc45)C[C@H]3C2)n1` [US20250188095, Example 17], for which the IC50 is greater than 1 µM.

For orientation: IC50 means the concentration at which inhibition is half-maximal. Higher therefore signals weaker potency in that assay.
